Source: patent publication US20250179077A1, “QUINAZOLINE COMPOUNDS AND USES THEREOF AS INHIBITORS OF MUTANT KRAS PROTEINS” (AMGEN INC., priority 2022, published 2025)
Where two headings read alike, the source gives them in different places.

Columns and labels:
[1] = biological target: His-tagged KRAS G12D protein (Homo sapiens, UniProt P01116, G12D); assay: KRAS G12D TR-FRET Assay; type: binding
Method: KRAS G12D TR-FRET Assay Compounds of interest were prepared in a dose-response titration in DMSO, and 80 nL were added via Labcyte Echo to each well of a 384-well plate (Perkin Elmer 6008280). The His-tagged KRAS G12D protein (Amgen) was diluted to 20 nM in Assay Buffer (20 mM HEPES, pH 7.4, 10 mM MgCl2, 50 mM NaCl, 0.1% BSA, 0.01% Tween-20, 10 μM GDP) and 2 uL was added to the appropriate wells of the 384-well plate. The plate was incubated for 30 minutes at room temperature. Biotinylated KRPep-2d substrate (Amgen) was diluted to 20 nM in Assay Buffer and 2 μL was added to all wells and incubated for 1 hour at room temperature. Detection Reagent (0.4 nM LANCE Eu-W1024 Anti-6×-His (Perkin Elmer AD0401), 5 nM streptavidin-d2 (Cisbio 610SADLA)) was prepared in Assay Buffer, then 4 μL was added to the plate and incubated for 1 hour at room temperature. Plates were read using PerkinElmer EnVision (ex: 320 nm, em1: 665 nm, em2: 615 nm) and em1/em2 data was used to generate curve fits using a 4-parameter logistic model to calculate IC50 values.

[2] = biological target: GDP-bound KRAS protein (aa 1-169), containing both G12D and C118A amino acid substitutions (Homo sapiens, UniProt P01116, C118A/G12D); assay: KRAS G12D Coupled Nucleotide Exchange Assay; type: biochemical
Chain of GDP-bound KRAS protein (aa 1-169), containing both G12D and C118A amino acid substitutions (P01116 1-169 isoform P01116-2 G12D/C118A): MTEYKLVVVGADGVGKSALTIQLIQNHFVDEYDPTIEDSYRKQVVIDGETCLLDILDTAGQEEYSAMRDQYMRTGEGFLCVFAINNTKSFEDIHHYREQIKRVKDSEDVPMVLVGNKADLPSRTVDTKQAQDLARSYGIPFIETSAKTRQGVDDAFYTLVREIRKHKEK
Method: KRAS G12D Coupled Nucleotide Exchange Assay
Following compound pre-incubation, purified SOS protein (aa 564-1049) and GTP (Roche 10106399001) were added to the assay wells and incubated for an additional 30 min. […] The assay plates were then read on a PerkinElmer EnVision Multilabel Reader, using AlphaScreen® technology, and data were analyzed using a 4-parameter logistic model to calculate IC50 values.

[3] = system: Phosphorylation of ERK1/2 in AsPC-1 cells; assay: Phospho-ERK1/2 MSD Assay; type: cell-based
Method: AsPC-1 (ATCC® CRL-1682™) cells were cultured in RPMI 1640 Medium (ThermoFisher Scientific 11875093) containing 10% fetal bovine serum (ThermoFisher Scientific 16000044) and Ix penicillin-streptomycin-glutamine (ThermoFisher Scientific 10378016). Sixteen hours prior to compound treatment, AsPC-1 cells were seeded in 96-well cell culture plates at a density of 25,000 cells/well and incubated at 37° C., 5% CO2. A compound dose-response titration was diluted in growth media, added to appropriate wells of a cell culture plate, and then incubated at 37° C., 5% CO2 for 2 h. Following compound treatment, cells were washed with ice-cold Dulbecco's phosphate-buffered saline, no Ca^2+ or Mg^2+ (ThermoFisher Scientific 14190144), and then lysed in RIPA buffer (50 mM Tris-HCl pH 7.5, 1% Igepal, 0.5% sodium deoxycholate, 150 mM NaCl, and 0.5% sodium dodecyl sulfate) containing protease inhibitors (Roche 4693132001) and phosphatase inhibitors (Roche 4906837001). Phosphorylation of ERK1/2 in compound-treated lysates was assayed using Phospho-ERK1/2 Whole Cell Lysate kits (Meso Scale Discovery K151DWD) according to the manufacturer's protocol. Assay plates were read on a Meso Scale Discovery Sector Imager 6000, and data were analyzed using a 4-parameter logistic model to calculate IC50 values.

[4] = Homo sapiens, ASPC1, 2 h, read-out: 2 h p-ERK (AsPC-1 cells), IC50, AsPC-1 cells, 2 h compound treatment
[5] = read-out: 2 h p-ERK (AsPC-1 cells), IC50, AsPC-1 cells, 2 h compound treatment

Chain of His-tagged KRAS G12D protein (P01116 1-188 isoform P01116-2 G12D): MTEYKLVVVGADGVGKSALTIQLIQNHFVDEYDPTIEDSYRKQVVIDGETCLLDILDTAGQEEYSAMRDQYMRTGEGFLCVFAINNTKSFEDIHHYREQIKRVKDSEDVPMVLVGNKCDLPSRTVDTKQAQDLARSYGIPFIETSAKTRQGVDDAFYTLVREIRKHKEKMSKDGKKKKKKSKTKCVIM

Compound | IC50 [1] | IC50 [2] | IC50 [3, 4] | IC50 [3, 5]
CCc1c(F)ccc2cc(O)cc(-c3c(F)cc4c(N5C[C@H]6CC[C@@H](C5)O6)nc(OC[C@@]56CCCN5C[C@H](F)C6)nc4c3F)c12 (relative stereo) [Example 18, rel-4-(4-((1R,5S)-8-Oxa-3-azabicyclo[3.2.1]octan-3-yl)-6,8-difluoro-2-(((2R,7aS)-2-fluorotetrahydro-1H-pyrrolizin-7a(5H)-yl)methoxy)quinazolin-7-yl)-5-ethyl-6-fluoronaphthalen-2-ol] | 46 nM | 37 nM | 2890 nM | –
CCc1c(F)ccc2cc(O)cc(-c3c(F)cc4c(N5CCC[C@@](C)(O)C5)nc(OC[C@@]56CCCN5C[C@H](F)C6)nc4c3F)c12 (single isomer, unassigned) [Example 2] | 1 nM | 1 nM | 9 nM | –
C#Cc1cccc2cc(O)cc(-c3c(F)cc4c(N5CCC[C@@](C)(O)C5)nc(OC[C@@]56CCCN5C[C@H](F)C6)nc4c3F)c12 (single isomer, unassigned) [Example 12] | 1 nM | 1 nM | 5 nM | –
C#Cc1cccc2cc(O)cc(-c3ccc4c(N5CC6CC(O)C(C6)C5)nc(OC[C@@]56CCCN5C[C@H](F)C6)nc4c3F)c12 (single isomer, unassigned) [Example 16] | 2 nM | 2 nM | 132 nM | –
C#Cc1c(F)ccc2cc(O)cc(-c3ccc4c(N5CC6CC(O)C(C6)C5)nc(OC[C@@]56CCCN5C[C@H](F)C6)nc4c3F)c12 (single isomer, unassigned) [Example 17] | 11 nM | 9 nM | 744 nM | –
CCc1c(F)ccc2cc(O)cc(-c3c(O)cc4c(N5CCC[C@@](C)(O)C5)nc(OC[C@@]56CCCN5C[C@H](F)C6)nc4c3F)c12 (single isomer, unassigned) [Example 27] | 1 nM | 1 nM | 18 nM | –
CCc1c(F)ccc2cc(O)cc(-c3ccc4c(N5CCOCC(C)(O)C5)nc(OC[C@@]56CCCN5C[C@H](F)C6)nc4c3F)c12 (single isomer, unassigned) [Example 29] | 1 nM | 1 nM | 15 nM | –
CCc1cccc2cc(O)cc(-c3ccc4c(N5CCOCC(C)(O)C5)nc(OC[C@@]56CCCN5C[C@H](F)C6)nc4c3F)c12 (single isomer, unassigned) [Example 30] | 3 nM | 3 nM | 12 nM | –
CCc1cccc2cc(O)cc(-c3c(F)cc4c(N5CCOCC(C)(O)C5)nc(OC[C@@]56CCCN5C[C@H](F)C6)nc4c3F)c12 (single isomer, unassigned) [Example 33] | 5 nM | 3 nM | 4 nM | –
CCc1c(F)ccc2cc(O)cc(-c3c(F)cc4c(N5CCOCC(C)(O)C5)nc(OC[C@@]56CCCN5C[C@H](F)C6)nc4c3F)c12 (single isomer, unassigned) [Example 34] | 2 nM | 2 nM | 2 nM | –
CCc1c(F)ccc2cc(N)cc(-c3c(F)cc4c(N5CCC[C@@](C)(O)C5)nc(OC[C@@]56CCCN5C[C@H](F)C6)nc4c3F)c12 (single isomer, unassigned) [Example 62] | 17 nM | 2 nM | 281 nM | –
CCc1c(F)ccc2cc(N)cc(-c3c(F)cc4c(N5CCOCC(C)(O)C5)nc(OC[C@@]56CCCN5C[C@H](F)C6)nc4c3F)c12 (single isomer, unassigned) [Example 72] | 8 nM | 2 nM | – | 151 nM

Results, then the molecule that gave them:

IC50 [1] | IC50 [2] | IC50 [3, 4] | IC50 [3, 5] | Compound
5 nM | 4 nM | 55 nM | – | C[C@@H]1C[C@@H]1c1c(Cl)cc2[nH]ncc2c1-c1c(F)cc2c(N3CCC[C@]4(CNC(=O)O4)C3)nc(OC[C@@]34CCCN3C[C@H](F)C4)nc2c1F (relative stereo) [Example 111, (5S)-7-(7-(6-Chloro-5~(2-methylcyclopropyl)-1H-indazol-4-yl)-6,8-difluoro-2-(((2R,7aS)-2-fluorotetrahydro-1H-pyrrolizin-7a(5H)-yl)methoxy)quinazolin-4-yl)-1-oxa-3,7-diazaspiro[4.5]decan-2-one 2,2,2-trifluoroacetate]
968 nM | 1254 nM | – | 205 nM | C#Cc1c(F)ccc2cc(O)cc(-c3c(F)cc4c(N5CCC[C@@](C)(O)C5)nc(OC[C@@]56CCCN5C[C@H](F)C6)nc4c3F)c12 (single isomer, unassigned) [Example 13]
1 nM | 2 nM | – | 3 nM | C#Cc1c(F)ccc2cc(O)cc(-c3c(F)cc4c(N5CCC[C@@](C)(O)C5)nc(OC[C@@]56CCCN5C[C@H](F)C6)nc4c3F)c12 (single isomer, unassigned) [Example 14]
4 nM | 4 nM | 297 nM | – | CCc1c(F)ccc2cc(O)cc(-c3ccc4c(N5CC6CC(O)C(C6)C5)nc(OC[C@@]56CCCN5C[C@H](F)C6)nc4c3F)c12 (single isomer, unassigned) [Example 15]
2 nM | 2 nM | 58 nM | – | CCc1c(F)ccc2cc(O)cc(-c3c(F)cc4c(N5CCCC(O)(C(F)F)C5)nc(OC[C@@]56CCCN5C[C@H](F)C6)nc4c3F)c12 (single isomer, unassigned) [Example 20]
2 nM | 2 nM | 157 nM | – | CCc1c(F)ccc2cc(O)cc(-c3ccc4c(N5CCCC(O)(C(F)F)C5)nc(OC[C@@]56CCCN5C[C@H](F)C6)nc4c3F)c12 (single isomer, unassigned) [Example 23]
3 nM | 2 nM | 27 nM | – | CC1(O)COCCN(c2nc(OC[C@@]34CCCN3C[C@H](F)C4)nc3c(F)c(-c4cc(O)cc5ccc(F)c(F)c45)ccc23)C1 (single isomer, unassigned) [Example 31]
5 nM | 3 nM | 25 nM | – | CC1(O)COCCN(c2nc(OC[C@@]34CCCN3C[C@H](F)C4)nc3c(F)c(-c4cc(O)cc5ccc(F)c(F)c45)c(F)cc23)C1 (single isomer, unassigned) [Example 32]
12 nM | 12 nM | – | 425 nM | CCc1c(F)ccc2cc(O)cc(-c3c(F)cc4c(N5CCCC6(CCO6)C5)nc(OC[C@@]56CCCN5C[C@H](F)C6)nc4c3F)c12 (single isomer, unassigned) [Example 38]
3 nM | 4 nM | – | 10 nM | CCc1c(F)ccc2cc(O)cc(-c3c(F)cc4c(N5CCCC6(CCO6)C5)nc(OC[C@@]56CCCN5C[C@H](F)C6)nc4c3F)c12 (single isomer, unassigned) [Example 39]
24 nM | 8 nM | – | 507 nM | CCc1c(F)ccc2cc(O)cc(-c3c(F)cc4c(N5CCCC6(CNC(=O)O6)C5)nc(OC[C@@]56CCCN5C[C@H](F)C6)nc4c3F)c12 (single isomer, unassigned) [Example 56]
21 nM | 8 nM | – | 39 nM | CCc1c(F)ccc2cc(O)cc(-c3c(F)cc4c(N5CCCC6(CNC(=O)O6)C5)nc(OC[C@@]56CCCN5C[C@H](F)C6)nc4c3F)c12 (single isomer, unassigned) [Example 59]
4 nM | 3 nM | 338 nM | – | C#Cc1c(F)ccc2cccc(-c3c(F)cc4c(N5CCC[C@@](C)(O)C5)nc(OC[C@@]56CCCN5C[C@H](F)C6)nc4c3F)c12 (single isomer, unassigned) [Example 67]
111 nM | 14 nM | – | 1400 nM | CCc1c(F)ccc2cc(N)cc(-c3c(F)cc4c(N5CCOCC(C)(O)C5)nc(OC[C@@]56CCCN5C[C@H](F)C6)nc4c3F)c12 (single isomer, unassigned) [Example 71]
